# Assay results reported in US20220324770A1, “NITRIFICATION INHIBITORS” (The University of Melbourne, priority 2019, published 2022).
# Assays:
# Dahlen soil = assay: Soil thin-layer chromatography (TLC) leaching study, Dahlen soil; format: physicochemical
# Procedure: (§1) TLC plates were prepared based on methods described in the literature (Helling, C. S., Turner, B. C, Science 1968, 162, 562-563; Mohammad, A., Jabeen, N., JPC—Journal of Planar Chromatography—Modern TLC 2003, 16, 137-143). Masking tape (3 layers, ˜[…] total thickness) was used to outline three columns (4 cm W×12 cm H) on a glass TLC plate (20×20 cm). A slurry of freshly ground soil in distilled H2O (˜2:3 m/v) was then poured onto the prepared plate and spread evenly using a glass rod. Once even, the plate was dried overnight in an oven at 35° C. Careful removal of the masking tape afforded the TLC plate ready for sample application.
# (§2) Samples of DMP (the active core of DMPP) or Compound 16 (˜1 mg) dissolved in acetone (100 μL) were pipetted in a straight line across the soil, 2 cm above the base of the plate. Application band thickness was kept under 0.5 cm. After 30 mins of drying time, the TLC plate was developed inside a glass developing chamber with distilled H2O (depth of 0.5 cm) until the solvent front reached the top of the soil (˜1 hr). […] The plate was then allowed to air dry overnight.
# (§3) Once dry, the plate was divided into six horizontal bands corresponding to Rf values of: (1) <0.05 (baseline), (2) 0.05 to 0.25, (3) 0.25 to 0.45, (4) 0.45 to 0.65, (5) 0.65 to 0.85, and (6) 0.85 to 1. In sequence, soil in each band was carefully scraped off the glass backing and collected in vials. Special care was taken to avoid cross-contamination between soil of different bands, and the separate channels.
# (§4) Individual soil bands collected from the TLC plate were extracted as follows: • 1. Addition of an aqueous solution of CaCl2/MgSO4 (0.01M and 0.45M respectively, 2 mL). • 2. Sonication for 5 minutes then manual shaking for 30 seconds. • 3. Addition of methyl-tert-butyl ether (MTBE, 2 mL) then manual shaking for 30 seconds. • 4. Sonication for 10 minutes then manual shaking for 30 seconds. • 5. Rested until soil began to settle, then frozen overnight at −20° C. • 6. After partial defrosting, the ethereal extract was filtered through nylon syringe filters (FilterBio®, 13 mm diameter, 0.45 µm pore size).
# (§5) The filtered ethereal extracts (450 μL) were spiked with 50 μL of a standard solution of either cyclododecanone in MTBE (1.97 mg/mL, for DMP-treated samples) or cyclooctanone in MTBE (6.37 mg/mL, for 16-treated samples). Samples were then directly analysed by GC-MS (method: 70° C. for 5 mins, then ramp 10° C./min to 250° C., hold at 250° C. for 17 mins [total run time=40 minutes]) to analyse the presence or absence of the inhibitor in each soil band.
# (§6) GC-MS peak areas calculated for the standards cyclooctanone (Rt=9.1 mins) and cyclododecanone (Rt=15.8 mins) were compared to those calculated for Compound 16 (Rt=13.9 mins) and DMP (Rt=7.6 mins) respectively, for each soil sample extract where inhibitor was detected as follows:
# (§7) As each treatment was run in triplicate, mean values are reported for detected inhibitor percentages for each Rf band, with errors presented as the standard deviation.
# as §2, with “the DCD” for “DMP (the active core of DMPP) or Compound 16”, “methanol (300” for “acetone (100”, “in” for “with”
# (§8) Individual soil bands collected from the TLC plate were extracted as follows: • 1. Addition of methanol (2 mL). • 2. Manual shaking for 30 seconds following sonication for 15 minutes. • 3. Once soil began to settle, the methanolic extract was filtered through nylon syringe filters (FilterBio®, 13 mm diameter, 0.45 µm pore size). • 4. 300 μL of the methanolic extracts were evaporated under nitrogen flow, and then the residues was taken up in ultrapure acetonitrile (1 mL). • 5. […]
# South Johnstone soil = assay: Soil thin-layer chromatography (TLC) leaching study, South Johnstone soil; format: physicochemical; details: for Detected Inhibitor (%): South Johnstone soil TLC
# Procedure: as §1, §2, §3, §4, §5, §6, §7
# as §2, with “the DCD” for “DMP (the active core of DMPP) or Compound 16”, “methanol (300” for “acetone (100”, “in” for “with”
# as §8
# [1] = temperature of 35° C.; cited from earlier work
SMILES,Rf range in which the majority of the inhibitor was detected (Dahlen soil; Dahlen soil TLC),"Detected Inhibitor (%) (Dahlen soil; Dahlen soil TLC, Rf 0.05-0.25)","Detected Inhibitor (%) (Dahlen soil; Dahlen soil TLC, Rf 0.25-0.45)","Detected Inhibitor (%) (Dahlen soil; Dahlen soil TLC, Rf 0.45-0.65)","Detected Inhibitor (%) (Dahlen soil; Dahlen soil TLC, Rf 0.65-0.85)",mobility in soil TLC (Dahlen soil; neutral Dahlen soil),leachability (conclusion) (Dahlen soil; neutral soils),Detected Inhibitor (%) (South Johnstone soil; Rf 0.05-0.25),Detected Inhibitor (%) (South Johnstone soil; Rf 0.25-0.45),Detected Inhibitor (%) (South Johnstone soil; Rf 0.45-0.65),Detected Inhibitor (%) (South Johnstone soil; Rf 0.65-0.85),Detected Inhibitor (%) (South Johnstone soil; Rf 0.85-1),leaching tendency (conclusion) (South Johnstone soil; acidic soils),time DMPP remains effective [1]
"CCCc1cn(CCC)nn1 [Compound 16, 1,4-dipropyl-1H-1,2,3-triazole]",0.25-0.45,3 ± 4,58 ± 14,38 ± 16,1 ± 1,reduced mobility compared to DMP,lower leachability than DMP and DCD,1 ± 1,5 ± 6,34 ± 5,49 ± 9,11 ± 3,lower-to-similar leaching tendencies to DCD,–
"Cc1c[nH]nc1C.O=P(O)(O)O [DMPP, 3,4-dimethylpyrazole phosphate, reference compound]",–,–,–,–,–,–,–,–,–,–,–,–,–,only one week
